Measurements published in patent US9242945B2, “Substituted 2-benzylidene-2H-benzo[b][1,4]thiazin-3(4H)-ones, derivatives thereof, and therapeutic uses thereof” (TEMPLE UNIVERSITY—OF THE COMMONWEALTH SYSTEM OF HIGHER …, priority 2011, dated 2016).
Read-outs that look alike come from different tables or passages of the source.

What was measured:
[1] = system: K562 (chronic myelogenous leukemia; leukemia cell line +ve for Bcr-Abl); assay: Cytotoxicity assay, K562 tumor cells; assay type: cell-based; settings: Homo sapiens, K562, 96 h treatment
Method: (§1) The effect of the compounds of the invention on tumor cells was determined by the assay described by Latham et al., Oncogene 12:827-837 (1996). Tumor cells K562 (chronic myelogenous leukemia; leukemia cell line +ve for Bcr-Abl) or DU145 (prostate cancer) were plated in 12-well dishes at a cell density of 2.5×10^4 cells well. The plated cells were treated 24 hours later with a compound of the invention dissolved in DMSO at multiple concentrations ranging from 0.01 μM to 100 μM. The plates were examined 96 hours later under an inverted microscope, Olympus CK-2 using a 10× objective, and compound activity was noted by physical observation. When necessary, the total number of viable cells was determined by trypsinizing the wells and counting the number of viable cells, as determined by trypan blue exclusion, using a hemacytometer. Where “Lower” and “Upper” value are provided in Table 5, the IC50 was determined to be within that range. When only a “Lower” value is provided and no “Upper” value is listed, the IC50 was that value, or less than or greater than that value, as set forth in the Table.
(§2) The cytotoxicity of Compound 42, (Z)-6-((2,6-dichlorobenzyl)sulfonyl)-2-(4-hydroxy-3-nitrobenzylidene)-2H-benzo[b][1,4]thiazin-3(4H)-one, was determined according the assay method of Example 7 on the prostate (androgen dependent or independent), breast and pancreatic cancer cell lines listed in Table 6A, below, and the additional cell lines listed in Table 6B, below. The human mesenchymal stem cell line HMSC.hTERT and normal human fibroblast cell line HFL was included in the test.

DU145 (prostate cancer) = assay: Cytotoxicity assay, DU145 tumor cells; assay type: cell-based; settings: Homo sapiens, DU-145, 96 h treatment
Method: as §1, §2

[2] = lower limit of the IC50 range, or the IC50 itself (or its bound) where no Upper value is listed, read-out: K562 IC50 (μm) Lower (μm)
[3] = upper limit of the IC50 range, read-out: K562 IC50 (μm) Upper (μm)
[4] = lower limit of the IC50 range, or the IC50 itself (or its bound) where no Upper value is listed, read-out: DU145 IC50 (μm) Lower (μm)
[5] = upper limit of the IC50 range, read-out: DU145 IC50 (μm) Upper (μm)

Structure (SMILES) | IC50 [1, 2] [nM] | IC50 [1, 3] [nM] | IC50 (DU145 (prostate cancer); [4]) [nM] | IC50 (DU145 (prostate cancer); [5]) [nM]
O=C1Nc2cc(S(=O)(=O)Cc3c(Cl)cccc3Cl)ccc2S/C1=C\c1cccs1 [Compound 33, (Z)-6-((2,6-dichlorobenzyl)sulfonyl)-2-(thiophen-2-ylmethylene)-2H-benzo[b][1,4]thiazin-3(4H)-one] | ≥ 500 | ≤ 1000 | ≥ 500 | ≤ 1000
COC(=O)c1ccc(/C=C2\Sc3ccc(S(=O)(=O)Cc4c(Cl)cccc4Cl)cc3NC2=O)c([N+](=O)[O-])c1 [Compound 35, (Z)-methyl 4-((6-((2,6-dichlorobenzyl)sulfonyl)-3-oxo-3,4-dihydro-2H-benzo[b][1,4]thiazin-2-ylidene)methyl)-3-nitrobenzoate] | ≥ 1000 | ≤ 10000 | > 10000 | 
CSc1nccc(/C=C2\Sc3ccc(S(=O)(=O)Cc4c(Cl)cccc4Cl)cc3NC2=O)n1 [Compound 36, (Z)-6-((2,6-dichlorobenzyl)sulfonyl)-2-((2-(methylthio)pyrimidin-4-yl)methylene)-2H-benzo[b][1,4]thiazin-3(4H)-one] | > 2500 |  | 2000 | 
O=C1Nc2cc(S(=O)(=O)Cc3c(Cl)cccc3Cl)ccc2S/C1=C\c1ccnc(N2CCOCC2)n1 [Compound 37, (Z)-6-((2,6-dichlorobenzyl)sulfonyl)-2-((2-morpholinopyrimidin-4-yl)methylene)-2H-benzo[b][1,4]thiazin-3(4H)-one] | ≥ 1000 | ≤ 10000 | ≥ 1000 | ≤ 10000
Cc1ccc(S(=O)(=O)Oc2ccc(/C=C3\Sc4ccc(S(=O)(=O)Cc5c(Cl)cccc5Cl)cc4NC3=O)cc2[N+](=O)[O-])cc1 [Compound 38, (Z)-4-((6-((2,6-dichlorobenzyl)sulfonyl)-3-oxo-3,4-dihydro-2H-benzo[b][1,4]thiazin-2-ylidene)methyl)-2-nitrophenyl 4-methylbenzenesulfonate] | 100 |  | 90 | 
O=C1Nc2cc(S(=O)(=O)Cc3c(Cl)cccc3Cl)ccc2S/C1=C\c1ccc(-c2nn[nH]n2)cc1 [Compound 39, (Z)-2-(4-(2H-tetrazol-5-yl)benzylidene)-6-((2,6-dichlorobenzyl)sulfonyl)-2H-benzo[b][1,4]thiazin-3(4H)-one] | ≥ 1000 | ≤ 10000 | ≥ 1000 | ≤ 10000
COc1ccc2c(c1)S/C(=C\c1ccc(OC(C)=O)c([N+](=O)[O-])c1)C(=O)N2C(C)=O [Compound 40, (Z)-4-((4-acetyl-7-methoxy-3-oxo-3,4-dihydro-2H-benzo[b][1,4]thiazin-2-ylidene)methyl)-2-nitrophenyl acetate] | 1500 |  | 2000 | 
O=C1Nc2cc(S(=O)(=O)Cc3c(Cl)cccc3Cl)ccc2S/C1=C\c1ccc(OCc2ccccc2)c([N+](=O)[O-])c1 [Compound 41, (Z)-2-(4-(benzyloxy)-3-nitrobenzylidene)-6-((2,6-dichlorobenzyl)sulfonyl)-2H-benzo[b][1,4]thiazin-3(4H)-one] | 750 |  | 1500 | 
O=C1Nc2ccc(F)cc2S/C1=C\c1ccc(OCc2ccccc2)c([N+](=O)[O-])c1 [Compound 43, (Z)-2-(4-(benzyloxy)-3-nitrobenzylidene)-7-fluoro-2H-benzo[b][1,4]thiazin-3(4H)-one] | > 10000 |  | > 10000 | 
O=C1Nc2ccc(F)cc2S/C1=C\c1ccc(O)c([N+](=O)[O-])c1 [Compound 44, (Z)-7-fluoro-2-(4-hydroxy-3-nitrobenzylidene)-2H-benzo[b][1,4]thiazin-3(4H)-one] | 250 |  | 750 | 
